Test results: patent US11472812B2, “Anti-cancer compounds targeting Ral GTPases and methods of using the same” (The Regents of the University of Colorado, a body corporate, priority 2014, dated 2022)
Changes are numbered by the printed parent chain.

What was measured:
RalB-GDP [1] = molecular target: T1, RalB-GDP (Homo sapiens, UniProt P11234, Q72L); experiment: TROSY 15N-HSQC NMR chemical shift perturbation; type: binding; conditions: 100 μM RalB-GDP, 100 μM compound
T1 construct: made in house
T1 sequence (P11234 1-206 Q72L): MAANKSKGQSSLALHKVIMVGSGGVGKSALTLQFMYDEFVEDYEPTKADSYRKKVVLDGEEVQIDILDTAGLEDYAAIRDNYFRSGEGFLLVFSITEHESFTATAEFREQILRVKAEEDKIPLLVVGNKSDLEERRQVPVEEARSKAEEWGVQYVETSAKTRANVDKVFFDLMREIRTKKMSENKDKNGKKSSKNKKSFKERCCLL
Description: (§1) To confirm the direct binding of the compounds to the target, we used TROSY ^15N-HSQC (Transverse Relaxation-Optimized Heteronuclear Single Quantum Coherence) NMR. RalB (Q72L mutant) in a pET16b (Novagen) plasmid was a kind gift from Dr. Darerca Owen (Cambridge University). RalB was purified with additional steps for loading with GDP or the non-hydrolyzable form of GTP, GMPNPP (GNP, Sigma-Aldrich). Uniform ^13C^15N-double labeled protein was produced in M9 media supplemented with ^15N-NH4Cl and ^13C-glucose. Samples were prepared for NMR in 50 mM sodium phosphate, pH 7.6, 100 mM NaCl and 1 mM MgCl2. All NMR experiments were recorded on an Agilent 900 MHz system at 25° C. Resonance assignments for the RalB-GNP complex were obtained from previously published studies deposited in Biological Magnetic Resonance Bank (BMRB, code: 15230). Chemical shift assignments of the RalB-GDP complex were obtained independently using HNCACB, CBCA(CO)NH and COCNH-TOCSY experiments. All NMR data was processed using NMRPipe and analyzed using CCPNMR analysis program. Assignment were obtained by automated assignment using PINE followed by manual verification. ^15N-HSQC experiments were used to monitor amide shifts from the RalB protein (100 μM) following the addition of compound reconstituted in deuterated DMSO. DMSO concentrations in the final sample were 0.5% or 1%; control samples were made with 0.5% or 1% deuterated DMSO and all samples containing compounds were compared to their corresponding […] control.
(§2) Because only the NMR structure of RalB in complex with GNP has been solved (PDB code 2KE5, BMRB entry 15230), we focused on this isoform. The ^15N-HSQC NMR spectrum of RalB-GDP and RalB-GNP were first determined and the chemical shift differences were analyzed. NMR spectra were then recorded in the presence of RBC8 or DMSO control. Binding of small molecules to the protein was monitored by the perturbation of ^15N-HSQC protein amide peaks.
(§3) A detailed NMR titration of the binding between BQU57 and RalB-GDP was carried out. […] In the absence of a crystal structure of RalB-GDP, a homology model was generated based on the sequence similarity to RalA-GDP and the residues that experienced chemical shift changes in the presence of drug was mapped onto this model (FIG. 3E).

RalB-GNP = molecular target: T2, RalB-GNP (Homo sapiens, UniProt P11234, Q72L); experiment: TROSY 15N-HSQC NMR chemical shift perturbation; type: binding; conditions: 100 μM RalB-GNP, 100 μM compound
T2 construct: made in house
T2 sequence (P11234 1-206 Q72L): T1 sequence (P11234 1-206 Q72L)
Description: as §1, §2, §3

RalB = molecular target: T3, RalB (Homo sapiens, UniProt P11234); experiment: RalBP1 pull-down of Ral activity in H2122 xenograft tumors; type: in vivo; conditions: single i.p. dose, RBC8 50 mg/kg or BQU57 10/20/50 mg/kg, tumors collected 3 h post-dose
T3 sequence (P11234 1-206): T1 sequence (P11234 1-206 Q72L) with L72Q
Experimental: (§4) Finally, we evaluated Ral GTPase activity in vivo in the H2122 xenografts. Nude mice were inoculated with 5×10^6 cells H2122 cells s.c. at four sites per mice. Tumor size reached an average of 250 mm^3 in ten days, at which time mice were given a signal i.p. dose of RBC8 or BQU57 at various concentrations. Tumors were then collected 3 h after injection of RBC8 or BQU57. RalA and RalB activity in tumor samples were then measured using the RalBP1 pull-down assay kit (Millipore #14-415). Ras and RhoA activity in tumor samples were measured using the respective pull-down assay kits. All the activity assays used western blotting as the final readout. For quantification of the immunoblots, the bands on each blot were first normalized to their respective internal control (10 ng of recombinant Ral, Ras, or […] protein run in the last lane) the numbers were then compared across different blots, each of which represented one treatment condition. Mice bearing H2122 tumors (median size 250 mm^3) were given a single intraperitoneal dose of RBC8 (50 mg/kg) or BQU57 (10/20/50 mg/kg) and tumors collected 3 h post-dose.

RalA = molecular target: T4, RalA (Homo sapiens, UniProt P11233); experiment: as above; type: in vivo; conditions: single i.p. dose, RBC8 50 mg/kg or BQU57 10/20/50 mg/kg, tumors collected 3 h post-dose
T4 sequence (P11233 1-206): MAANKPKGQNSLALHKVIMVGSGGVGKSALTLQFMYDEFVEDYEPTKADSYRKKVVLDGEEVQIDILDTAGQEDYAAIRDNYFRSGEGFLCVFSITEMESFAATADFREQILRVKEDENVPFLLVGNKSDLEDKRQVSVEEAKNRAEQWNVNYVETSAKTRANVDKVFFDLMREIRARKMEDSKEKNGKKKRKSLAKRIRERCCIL
Experimental: as §4

RalB-GDP [2] = molecular target: T1, RalB-GDP; experiment: Surface Plasma Resonance (SPR) binding, Biacore 3000; conditions: RalB immobilized on CM5 chip; PBS pH 7.4, 1 μM GDP, 2 mM MgCl2, 3% DMSO
Experimental: Consequently, the binding of BQU57 to RalB-GDP was then determined using Isothermal Titration Calorimetry (ITC). ITC experiments were carried out using the MicroCal iTC200 system. Both protein and drug were prepared in 50 mM sodium phosphate, pH 7.6, 100 mM NaCl, and 1 mM MgCl2. Final DMSO concentration was adjusted to 1%. RalB-GDP protein (500 μM) were loaded into the syringe and titrated into drug (25 μM) or buffer alone as control. All experiments were carried out at 25° C. […] SPR experiments were carried out using the Biacore 3000 system. Running buffer: PBS, pH 7.4, 1 μM GDP, 2 mM MgCl2, 3% DMSO. Regeneration buffer: PBS, pH 7.4, 1 μM GDP, 2 mM Mg Cl2. RalB protein was immobilized on CM5 chip; samples of compound BQU57 in running buffer were injected at 30 μL/min for 60 s contact time followed by 5 minute regeneration.

Structure (SMILES)	binding to RalB-GDP by 15N-HSQC chemical shift changes (RalB-GDP [1])	binding to RalB-GNP by 15N-HSQC chemical shift changes (RalB-GNP)	inhibition of RalB activity in tumors (RalB)	inhibition of RalA activity in tumors (RalA)	Kd (RalB-GDP [2])
Cc1nn(C)c2c1C(c1ccc(C(F)(F)F)cc1)C(C#N)=C(N)O2 (stereo not drawn) [BQU57, 6-amino-1,3-dimethyl-4-(4-(trifluoromethyl)phenyl)-1,4-dihydropyrano[2,3-c]pyrazole-5-carbonitrile]	binding to the predicted site	did not bind	significant inhibition	significant inhibition	4.7 ± 1.5 µM
COc1ccc(OC)c(C2C(C#N)=C(N)Oc3n[nH]c(-c4ccc5ccccc5c4)c32)c1 (stereo not drawn) [RBC8]	showed changes in peak position of representative residues located in the allosteric site	did not bind	significant inhibition	significant inhibition	
